Test results taken from patent US20170226139A1, “CRYSTALLINE SALTS OF (Z)-O-OCTADEC-9-EN-1-YL O,O-DIHYDROGEN PHOSPHOROTHIOATE” (priority 2013, published 2017).
Read-outs that look alike come from different tables or passages of the source.

Tested on: S. typhimurium strains TA98, TA100, TA1535 and TA1537 and E. coli strain WP2uvrA
Type: cell-based
Protocol: An Ames assay was conducted on Rx100.Lysine using S. typhimurium strains TA98, TA100, TA1535 and TA1537 and E. coli strain WP2uvrA. Two trials were performed. […] See Tables 38A and 38B, respectively. In the second trial, doses ranged from 0.160 to 16 μg/plate with some strains tested with activation and others without activation.

Nc1ccc2cc3ccccc3cc2c1 [2-aminoanthracene]
Revertant Colony Counts (Mean ± SD) (TA100, with metabolic activation, positive control 2.5 μg/plate): 2106 ± 68 ^N
Revertant Colony Counts (Mean ± SD) (TA1535, with metabolic activation, positive control 2.5 μg/plate): 205 ± 11 ^N
Revertant Colony Counts (Mean ± SD) (TA1537, with metabolic activation, positive control 2.5 μg/plate): 176 ± 19 ^N C
Revertant Colony Counts (Mean ± SD) (WP2uvrA, with metabolic activation, positive control 25.0 μg/plate): 634 ± 14 ^N

O=[N+]([O-])c1ccc2c(c1)Cc1ccccc1-2 [2-nitrofluorene]
Revertant Colony Counts (Mean ± SD) (Without Metabolic Activation, TA98, positive control 1.0 μg/plate): 329 ± 65 ^N

COc1ccc2nc3cc(Cl)ccc3c(NCCCNCCCl)c2c1 [ICR-191]
Revertant Colony Counts (Mean ± SD) (Without Metabolic Activation, TA1537, positive control 2.0 μg/plate): 562 ± 33 ^N

[N-]=[N+]=[N-] [sodium azide]
Revertant Colony Counts (Mean ± SD) (Without Metabolic Activation, TA100, positive control 2.0 μg/plate): 969 ± 137 ^N
Revertant Colony Counts (Mean ± SD) (Without Metabolic Activation, TA1535, positive control 2.0 μg/plate): 863 ± 45 ^N
